In experiment [1] the test system is EBP (zymostenol accumulation in EpiSC-derived OPCs). Kind of experiment: GC/MS-based sterol profiling, zymostenol accumulation in OPCs. The experiment is classed as cell-based, mouse. Particulars: Mus musculus, 24 h, EpiSC-derived OPCs, 24 hr treatment, 8 doses from 0.15 nM to 333 nM; read-out: Zymostenol GCMS EC50. The method, boiled down: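 EpiSC-derived OPCs (100,000/well) were treated 24 h in N2B27 without growth factors. Sterols were TMS-derivatized and analysed by GC/MS full-scan EI, quantified against cholesterol-d7. Zymostenol was normalized to the level after 24 h with 100 nM positive control reference.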

In experiment [2] the test system is EpiSC-derived OPCs. Kind of experiment: In vitro phenotypic screening of OPCs (MBP staining, high-content imaging). Conditions: Mus musculus, 72 h, percentage of MBP+ oligodendrocytes, 3 days, 0.5 nM to 1000 nM; read-out: OPC EC50. The experiment is classed as cell-based, mouse. The procedure, abridged:
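Readout: high-content imaging of MBP immunostaining around DAPI nuclei, giving percent oligodendrocytes, with EC50 from a Levenberg-Marquardt Hill fit. Epiblast stem cell-derived OPCs were plated on laminin at 150,000/cm^2 in growth-factor-free N2B27. They were exposed 3 days to an 8-point series, 0.5-1000 nM final, in two or more independent platings.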

For experiment [3], the target named is human emopamil binding protein and human 7-dehydrocholesterol reductase co-expressing cells (hEBP-DHCR7 membrane) (Homo sapiens (Human), UniProt Q15125). The experiment is described as follows: Radioligand filter binding assay on hEBP-DHCR7 membrane. Particulars: [3H]-(S)-6-(2-Methyl-3-(6-(trifluoromethyl)pyridin-3-yl)propyl)-2-thia-6-azaspiro[3.4]octane 2,2-dioxide radioligand, HEK293 membrane co-expressing hEBP and hDHCR7. The method, boiled down: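 HEK293 cells transiently co-expressing human EBP and DHCR7 supplied whole-cell membranes (10 μg/well), incubated 3 h at 22 °C with [3H]-labelled spiro-octane dioxide ligand (added at 25 nM) and compound (0.06-5000 nM final, 8 doses, n=2). Bound ligand was collected on PEI-treated GF/B filters and counted by scintillation. IC50 was Hill-fitted from % inhibition and reported as Ki.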
Chain of human emopamil binding protein and human 7-dehydrocholesterol reductase co-expressing cells (hEBP-DHCR7 membrane) (Q15125 whole entry): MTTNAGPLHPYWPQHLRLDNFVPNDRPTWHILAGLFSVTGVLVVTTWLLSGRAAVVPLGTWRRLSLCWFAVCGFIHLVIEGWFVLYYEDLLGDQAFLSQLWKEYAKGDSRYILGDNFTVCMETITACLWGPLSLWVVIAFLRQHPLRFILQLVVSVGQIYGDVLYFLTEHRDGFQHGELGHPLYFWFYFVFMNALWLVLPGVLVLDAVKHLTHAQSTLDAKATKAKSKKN

Regarding `O=S1(=O)CC2(CCN([C@H]3CC[C@@H](c4ncc(C(F)(F)F)cc4F)CC3)CC2)C1` [Compound 80B, 7-((1s,4s)-4-(3-fluoro-5-(trifluoromethyl)pyridin-2-yl)cyclohexyl)-2-thia-7-azaspiro[3.5]nonane 2,2-dioxide], the results for the EC50 in experiment [1] and in experiment [2] were 8 nM and 38 nM, respectively. Moreover, the Ki in experiment [3] worked out at 28 nM.

Regarding `O=S1(=O)CC2(CCN([C@H]3CC[C@H](c4ccnc(C(F)(F)F)c4)CC3)C2)C1` [Compound 60A, 6-((1r,4r)-4-(2-(trifluoromethyl)pyridin-4-yl)cyclohexyl)-2-thia-6-azaspiro[3.4]octane 2,2-dioxide], the results for the EC50 in experiment [1] and in experiment [2] were 10 nM and 21 nM, respectively. The molecule also gave a Ki in experiment [3] of 133 nM.

`O=S1(=O)CC2(CCN([C@@H]3CC[C@@H](c4nc(-c5cccc(C(F)(F)F)n5)nn4C4CC4)C3)CC2)C1` (single isomer, unassigned) [42B*]: the EC50 amounted to 58 nM in experiment [1] and 180 nM in experiment [2]. This molecule had an inhibition constant Ki in experiment [3] of 390 nM.

As for `O=S1(=O)CC2(CCN([C@H]3CC[C@H](c4ccc(C(F)(F)F)nc4C4CC4)CC3)C2)C1` [Compound 75, 6-((1r,4r)-4-(2-Cyclopropyl-6-(trifluoromethyl)pyridin-3-yl)cyclohexyl)-2-thia-6-azaspiro[3.4]octane 2,2-dioxide], the 50% effective concentration (EC50) turned out to be 3.2 nM in experiment [1] and 5 nM in experiment [2]. Affinity in experiment [3] was put at a Ki of 11 nM.

As to `O=S1(=O)CC2(CCN([C@@H]3CC[C@H](c4ccc(C(F)(F)F)nc4)C3)CC2)C1` (single isomer, unassigned) [57C*], the EC50 in experiment [1] came out at 16 nM; in experiment [2], 53 nM. In experiment [3], this molecule registered a Ki of 120 nM.

As for `O=S1(=O)CC2(CCN([C@H]3CCC[C@@H](c4ccc(C(F)(F)F)nc4)C3)CC2)C1` (single isomer, unassigned) [56C*], the concentration for a half-maximal effect (EC50) in experiment [1] came out at 19 nM; in experiment [2], 76 nM. The Ki in experiment [3] came out at 140 nM.

For the molecule `O=S1(=O)CC[C@@]2(CCCN([C@H]3CC[C@H](c4ccc(C(F)(F)F)cn4)CC3)C2)C1` (single isomer, unassigned) [68B*], the values for the EC50 in experiment [1] and in experiment [2] were 5.8 nM and 22 nM, respectively. This molecule registered a Ki in experiment [3] of 41 nM.

For the molecule `CCn1nc(-c2ccc(C(F)(F)F)nc2)nc1[C@H]1CC[C@H](N2CCC3(CC2)CS(=O)(=O)C3)CC1` (stereo in doubt) [43A*, (trans)-7-(-4-(1-Ethyl-3-(6-(trifluoromethyl)pyridin-3-yl)-1H-1,2,4-triazol-5-yl)cyclohexyl)-2-thia-7-azaspiro[3.5]nonane 2,2-dioxide], the EC50 came out at 8 nM in experiment [1] and 27 nM in experiment [2]. Affinity in experiment [3] was put at a Ki of 125 nM.

In the case of `O=S1(=O)CCC2(CCN([C@H]3CC[C@H](c4ccc(C(F)(F)F)nc4)CC3)C2)CC1` [Compound 95A, 2-((1r,4r)-4-(6-(Trifluoromethyl)pyridin-3-yl)cyclohexyl)-8-thia-2-azaspiro[4.5]decane 8,8-dioxide], the figures for the concentration giving a half-maximal response (EC50) in experiment [1] and in experiment [2] were 170 nM and 520 nM, respectively. Moreover, in experiment [3], the Ki came out at 710 nM.

On to `O=S1(=O)CC2(CCN([C@H]3CC[C@H](c4ncc(C(F)(F)F)cc4Cl)CC3)C2)C1` [Compound 48A, 6-((1r,4r)-4-(3-chloro-5-(trifluoromethyl)pyridin-2-yl)cyclohexyl)-2-thia-6-azaspiro[3.4]octane 2,2-dioxide], for which the EC50 in experiment [1] is 3.7 nM; in experiment [2] it was 4 nM. Also, the Ki in experiment [3] is 31 nM.

Consider `CC(C)(C)n1nc(C2CC2)nc1[C@H]1CC[C@@H](N2CCC3(C2)CS(=O)(=O)C3)C1` [Compound 74B, 6-((1R,3S)-3-(1-(tert-butyl)-3-cyclopropyl-1H-1,2,4-triazol-5-yl)cyclopentyl)-2-thia-6-azaspiro[3.4]octane 2,2-dioxide], for which the EC50 in experiment [1] amounted to 17 nM; in experiment [2], 76 nM. Moreover, in experiment [3], the affinity corresponds to a Ki of 494 nM.

The values above are taken from US20240398781A1, “SPIROCYCLIC CYCLIC MODULATORS OF CHOLESTEROL BIOSYNTHESIS AND THEIR USE FOR PROMOTING REMYELINATION” (GENENTECH, INC., priority 2021, published 2024).
